Each structure is given as a SMILES string. Activity calls are given as the source filed them.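 How the source made its calls: active means maximal inhibition of USP17 at or above 30% in the confirmation dose-response, a value not among the printed readouts; inactive means the rest.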

Ubiquitin carboxyl-terminal hydrolase 17-like protein 5 (Homo sapiens), sequence (A8MUK1 whole entry, looked up): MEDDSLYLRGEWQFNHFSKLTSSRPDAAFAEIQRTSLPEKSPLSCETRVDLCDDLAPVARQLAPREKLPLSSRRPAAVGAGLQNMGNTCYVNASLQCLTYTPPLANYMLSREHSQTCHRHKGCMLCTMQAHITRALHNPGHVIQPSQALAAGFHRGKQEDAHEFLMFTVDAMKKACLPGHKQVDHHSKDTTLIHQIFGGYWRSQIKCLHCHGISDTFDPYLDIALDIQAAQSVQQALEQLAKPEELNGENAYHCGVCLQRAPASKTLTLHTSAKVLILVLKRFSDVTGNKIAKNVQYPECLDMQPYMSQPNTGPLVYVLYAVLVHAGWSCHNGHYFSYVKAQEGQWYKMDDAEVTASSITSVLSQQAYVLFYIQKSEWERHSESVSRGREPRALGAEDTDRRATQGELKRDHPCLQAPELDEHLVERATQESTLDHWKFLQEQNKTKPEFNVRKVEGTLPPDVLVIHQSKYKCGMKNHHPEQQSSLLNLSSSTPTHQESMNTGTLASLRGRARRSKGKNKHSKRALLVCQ

The experiment has as its target Ubiquitin carboxyl-terminal hydrolase 17-like protein 5 (Homo sapiens) (UniProt A8MUK1). Nature of the experiment: ubiquitin-specific protease 17 inhibitors, concentration series, biochemical, verification of primary actives (AID 1645864). As to conditions: purified USP17, ubiquitin-rhodamine cleavage fluorescence, 3 h.
`Cc1cc(C(=O)Nc2ccc3c(c2)OCCO3)no1`: the IC50 was > 50 µM (inactive).

As to `O=S(=O)(c1ccc2c(c1)OCCO2)N(Cc1ccccc1)Cc1nnc(-c2ccccc2)o1`, the IC50 is > 50 µM (inactive). Take `COc1cccc(N2C(=O)N(CC(=O)NCc3ccc(Cl)cc3)c3ccccc3S2(=O)=O)c1`: the half-inhibitory concentration (IC50) is 19.1 µM. For `O=C(CN1C(=O)COc2ccc(Cl)cc21)Nc1cccc2ncccc12`, the IC50 is > 50 µM (inactive). As to `CCOc1cc(C2C3=C(CC(C)(C)CC3=O)Nc3onc(C)c32)ccc1O` (centres undefined), the IC50 is 39.7 µM. Then `Cc1ccc(-c2nc(NC(=O)Nc3ccc(Cl)cc3)sc2C)cc1`, with 19.6 µM; and `Cc1cccc(NC(=O)Cn2c(=O)n(Cc3ccc(F)cc3)c(=O)c3sccc32)c1`, with 5.8 µM; and `CN(C(=O)c1ccncc1)[C@H]1CC[C@@]2(C)C[C@H](c3ccccc3)C[C@](C)(O2)[C@@H]1O`, with > 50 µM (inactive). For the compound `CC(C)(C)C(=O)C1C2C(=O)N(c3ccc4c(c3)OCO4)C(=O)C2C2c3ccccc3C=CN12` (centres undefined), the IC50 was > 50 µM (inactive).

As to `O=C1Nc2c(Cl)cc(Cl)cc2C1(O)c1sc(NC2CCCCC2)nc1-c1ccccc1` (centres undefined), the IC50 was 30.9 µM. For `COc1ccc(-c2cc3c(=O)n(CC(=O)Nc4ccccc4Cl)ccn3n2)cc1`, the 50% inhibitory concentration (IC50) was 5.49 µM. For `Cc1ccc(CNC(=O)Cn2cnc3c(cnn3-c3cccc(Cl)c3)c2=O)cc1` the value was 1.49 µM. Then `O=C(Cn1ccc2ccc(N3CCOCC3)nc21)NCc1ccccc1F`, with > 50 µM (inactive); and `O=C(NCCN1CCCC1)C1CCN(c2cnc(N3CCCCC3)nc2)CC1`, with > 50 µM (inactive).

Consider `COc1ccc(NC(=O)c2ccc(-n3nnnc3SC)cc2)cc1Cl`, for which the IC50 was > 50 µM (inactive). Then `COc1cccc(-n2cnc3cc(C(=O)NC4CC4)ccc3c2=O)c1`, with 15 µM. With `O=C1c2ccccc2-n2c1nc1ccccc1c2=O`, the IC50 is 4.91 µM. In the case of `COc1ccc(C(=O)Nc2sc3c(c2C(=O)NCc2cccnc2)CCCC3)cc1`, the IC50 is 6.19 µM.

In the case of `Cn1c(=O)c2c(ncn2CC(=O)NC2CCCc3ccccc32)n(C)c1=O` (centres undefined), the IC50 is > 50 µM (inactive). Take `C=Cc1ccc(Cn2cccc(S(=O)(=O)N3CCCC3)c2=O)cc1`: the half-maximal inhibitory concentration (IC50) is 3.92 µM. Take `CC(=O)Nc1ccc(-n2cnc(C(=O)NCc3ccc(C)cc3)c2)nc1`: the IC50 is 27.1 µM. For the compound `Cc1cc(NC(=O)c2nnn(-c3ccccc3Cl)c2C)no1`, the IC50 is > 50 µM (inactive). As for `O=C(Nc1cccc(Br)c1)c1cc(-c2cccnc2)n[nH]1`, the IC50 is 4.2 µM.

Regarding `CN1CC2CN(C(=O)Nc3cccnc3)CCN2Cc2ccccc21` (centres undefined), the IC50 was > 50 µM (inactive).

On to `COc1ccccc1NC(=O)Nc1ccc(NC(=O)c2ccccc2O)cc1`, for which the IC50 is 47.5 µM. With `COc1cc(O)c2c(=O)c(-c3ccc(O)cc3)coc2c1`, the IC50 is 15.4 µM.

In the case of `Cc1nn(-c2ccc([N+](=O)[O-])cc2)c(C)c1-c1nc2ccccc2[nH]1`, the IC50 was 33 µM. For the compound `CCN(CC)c1nc(F)c2c(c1F)S(=O)(=O)CCN2Cc1ccccc1`, the IC50 is > 50 µM (inactive). `COc1ccc(CN(C(=O)c2cc(-c3ccc(C)cc3)on2)C2CCS(=O)(=O)C2)cc1` (centres undefined): the half-maximal inhibitory concentration (IC50) is 17.3 µM. For `COc1ccc(NC(=O)c2sc(N3CCOCC3)nc2-c2ccccc2)c(OC)c1`, the IC50 is 27.7 µM. For `O=C(CNC(=O)c1cc2ccccc2[nH]1)Nc1ccc2c(c1)OCCO2` the value was 34 µM; for `CCc1cc2cc3c(cc2nc1SCC(=O)Nc1cccc(C(C)=O)c1)OCO3`, 2.29 µM.

With `CCCc1cc(=O)oc2cc(OCC(=O)NCc3ccc(OC)cc3)ccc12`, the IC50 was 9.4 µM. Take `CCOc1ccc2c(c1)c(=O)c(C(=O)c1ccc(C)cc1)cn2CC(=O)Nc1ccc(OC)c(OC)c1`: the IC50 was 0.464 µM. As for `CC(OC(=O)c1ccc2c(c1)OCCO2)C(=O)NCC1CCCCC1` (centres undefined), the half-inhibitory concentration (IC50) is 30.1 µM. Then `CCOc1ccc2c(c1)c(=O)c(C(=O)c1ccccc1)cn2CC(=O)Nc1ccc2c(c1)OCCO2`, with 20.4 µM; and `COc1ccc(NC(=O)c2nnc(C(=O)NCCN3CCCCCC3)s2)cc1`, with 3.05 µM; and `CC(=O)CN1CC2(CCN(Cc3ccc(F)cc3)CC2)COc2ccccc2S1(=O)=O`, with > 50 µM (inactive). In the case of `O=C1CC(C(=O)Nc2ccccc2F)n2nc(-c3ccccc3)cc2N1` (centres undefined), the IC50 is 25.3 µM. For `Cc1ccc2c(=O)c3c([nH]c2c1C)CCN(CC(=O)NCc1ccc2c(c1)OCO2)C3` the value was 32.8 µM. With `Cc1ccc(/C=C/C(=O)Nc2ccc3c(c2)OCCO3)cc1`, the IC50 is > 50 µM (inactive). `O=C(Nc1nc2c(s1)COCC2)c1cc(-c2ccco2)[nH]n1`: the IC50 was > 50 µM (inactive).

Consider `COc1ccc(Cl)cc1-n1nnc(C(=O)N2CCc3ccccc3C2)c1C`, for which the IC50 is > 50 µM (inactive). As for `Cc1ccc(-n2c(=O)[nH]c3c(C(N)=O)nc(-c4cccnc4)nc32)cc1`, the IC50 was 4.36 µM. On to `COc1ccc(S(=O)(=O)N2CCc3ccccc32)cc1C(=O)Nc1ccc2[nH]c(=O)[nH]c2c1`, for which the IC50 was 4.48 µM. In the case of `COc1ccc2nc(Nc3ncc4c(n3)CCCC4=O)nc(C)c2c1`, the IC50 is > 5 µM (inactive). `CCn1c(COc2cccc(C(F)(F)F)c2)nnc1SCc1ccc(Cl)cc1`: the IC50 is 43.4 µM.

With `O=C(Nc1ccc(F)cc1F)NC1CCN(c2ccccc2)C1=O` (centres undefined), the IC50 was 18.3 µM. Then `CCOc1ccc(NC(=O)Cn2cc(C(=O)c3ccc(Cl)cc3)c(=O)c3cc(OC)ccc32)cc1`, with 2.74 µM; and `CCC(=O)Nc1ccc2c(c1)nc(CSc1nccc(C)n1)n2CC`, with > 50 µM (inactive); and `Cc1nn(CC(=O)NCc2ccccc2F)c2ccccc12`, with 47 µM. As for `Nc1nc(-c2ccc[nH]2)cs1`, the IC50 was > 50 µM (inactive). Regarding `CCN1C(SCc2ccccc2F)=NS(=O)(=O)c2ccccc21`, the IC50 is > 50 µM (inactive). Take `COc1ccc(S(=O)(=O)N(C)Cc2cccs2)cc1OC`: the IC50 is > 50 µM (inactive). In the case of `CC[C@H](C)C[C@H]1CC[C@](O)([C@](C)(O)C(=O)N[C@@H]2C(=O)N3NCCC[C@@H]3C(=O)N(O)[C@@H](C)C(=O)NCC(=O)N3NCCC[C@H]3C(=O)N(O)[C@H](C)C(=O)O[C@H]2C(C)C)O[C@@H]1C`, the IC50 is 13.6 µM. As for `CCOc1ccc(CC(=O)Nc2ccc(-c3cn4cccnc4n3)cc2)cc1`, the IC50 is 31.7 µM. Consider `O=C(O)CCCCCN1C(=O)CC(c2ccc(Cl)cc2)CC1=O`, for which the IC50 is 18.2 µM. With `COc1ccc(C(=O)Nc2ccc3c(c2)Sc2ncccc2C(=O)N3C)cn1`, the IC50 is > 50 µM (inactive). On to `Cc1ccc2nc(CCc3ccc(NS(=O)(=O)c4cccc(Cl)c4C)cc3)[nH]c2c1`, for which the IC50 is > 50 µM (inactive). Consider `CCn1cc2c(n1)c(=O)n(Cc1ccc(C)cc1)c(=O)n2CC(=O)Nc1ccc(F)cc1`, for which the IC50 was 4.06 µM. Then `COc1ccc(C(=O)N2CCCC3(C2)Nc2cccnc2NC3=NC2CCCC2)cn1` (centres undefined), with > 50 µM (inactive); and `N#Cc1ccc(NC(=O)COC(=O)c2ccc3ccccc3n2)cc1`, with > 50 µM (inactive). Regarding `CC(=O)Nc1ccc(S(=O)(=O)Nc2ccc(Nc3ccc(-n4cccn4)nn3)cc2)cc1`, the IC50 was 24.2 µM.

For the compound `COc1cccc(NC(=O)C2CCN(C(=O)c3cc(-c4cccnc4)n[nH]3)CC2)c1`, the IC50 is > 50 µM (inactive). For `CN(Cc1ccccc1)S(=O)(=O)c1ccc(S(=O)(=O)N2CCN(C(=O)c3cccnc3)CC2)cc1` the value was 44 µM. Take `Cc1ccc2c(=O)c(C(=O)Nc3ccccc3)cn(CC(=O)NC3CCCCC3)c2n1`: the IC50 was under 0.05 µM. Then `O=C(Cn1cnc2ccccc21)Nc1ccc2c(c1)CCC2`, with 27.9 µM.

Consider `O=C(NCc1ccc(-c2nc3cnccc3o2)cc1)c1ccccc1F`, for which the IC50 is 18.8 µM.

As to `CCc1ccc(OCc2nnc(SCC(=O)Nc3ccccc3OC)n2Cc2ccccc2)cc1`, the IC50 was > 50 µM (inactive). Take `O=C(Nc1ccc2c(c1)OCO2)C1CCN(Cc2nc3ccccc3s2)CC1`: the IC50 was > 50 µM (inactive). On to `COc1ccc(NC(=O)Cn2c(CSc3ccc(C)cc3)nc3ccccc32)cc1`, for which the half-maximal inhibitory concentration (IC50) was 36 µM. With `Cc1c(CC(=O)Nc2nn[nH]n2)c(=O)oc2cc3c(cc12)CCC1(CCCCC1)O3`, the IC50 is > 50 µM (inactive). `Cc1ccc2cc3c(nc2n1)CCN(Cc1ccc(F)cc1)C3`: the IC50 is > 50 µM (inactive).

As for `CCc1ccc(-c2nc(SCC(=O)Nc3ccc4[nH]c(=O)[nH]c4c3)n[nH]2)cc1`, the half-maximal inhibitory concentration (IC50) is 27.4 µM. As for `Cc1ccc(C)c(CSC2=NCCN2C(=O)c2ccco2)c1`, the IC50 was > 50 µM (inactive). `CC1=CC(=O)C(C2=C(O)C(=O)C(C)=CC2=O)=C(O)C1=O`: the IC50 was 3.55 µM. For `Fc1ccc(CSc2nnc(-c3ccccn3)n2Cc2ccco2)cc1`, the IC50 is > 50 µM (inactive). Turning to `COc1ccc(Cl)cc1NC(=O)Cn1c(=O)cc(C)c2c(C)nn(-c3ccccc3)c21`, the IC50 was 5.81 µM. On to `c1coc(CNc2nc(Nc3cccc4ccccc34)nc3ccccc23)c1`, for which the IC50 was > 50 µM (inactive). Turning to `COc1c2c(cc3cc(O)c4c(=O)cc(C)oc4c13)CCC2=O`, the IC50 was 34.3 µM. As to `CCc1ccc(NC(=O)COC(=O)c2n[nH]c3ccccc23)cc1`, the IC50 was 3.42 µM. Consider `O=C1NC(=O)/C(=C/c2ccc(OC(=O)c3ccc(Cl)cc3Cl)cc2)N1`, for which the 50% inhibitory concentration (IC50) was 13.7 µM. Consider `COc1ccc(Nc2nc3c(S(=O)(=O)c4ccc(C)cc4)nnn3c3ccsc23)c(OC)c1`, for which the IC50 was 2.62 µM. `COc1cccc2sc(N3CCN(c4nc5ccccc5s4)CC3)nc12`: the IC50 is 38 µM. As for `COc1ccc(CCNC(=O)c2cc(C3CC3)nc3c2cnn3C(C)C)cc1`, the IC50 was > 50 µM (inactive). Regarding `Cc1ccc(NC(=O)c2c3c(nc4ccccc24)CCCCC3)c(C)c1`, the IC50 is > 50 µM (inactive).

Take `CCc1ccc(C(C)NC(=O)C2CCN(c3ccc4nncn4n3)CC2)cc1` (centres undefined): the IC50 was > 50 µM (inactive). Consider `COc1ccc(CNC(=O)CSc2nc3nc(C)ccc3o2)cc1`, for which the IC50 was 25 µM. Consider `CCOc1ccc(NC(=O)COc2cccc(-n3cnnn3)c2)cc1`, for which the IC50 was > 50 µM (inactive).

The values are drawn from PubChem BioAssay AID1645864 (Buhrlage Lab, Dana-Farber Cancer Institute and Novartis …, 2021).
